From patent publication EP0778733B1, “A BASIC PROTEIN COMPOSITION FOR KILLING OR INHIBITING MICROBIAL CELLS” (NOVO NORDISK A/S, priority 1994, dated 1996)

Legend:
Format in all cases: cell-based
Pseudomonas aeruginosa = assay: Impedimetric MIC / detection time, growing cells in TSB (Bactometer); design: key: n.e.: not effective; settings: Table 4, strain printed as Pseudomonas aeroginosa; determined as in Example 1 (inhibition of at least 100 hours); n.e. = not effective
Protocol: (§1) Volumes (1.0 ml) of TSB medium were added to Bactometer® wells. Protamine solutions (0.1 ml) were transferred to the wells which were sealed, connected to the Bactometer B123-2 (bioMérieux UK ltd., UK) and incubated at 25°C until a significant detectable increase in the electrical conductivity of the medium was registered and the detection time (DT) was recorded (maximum 100 h). Detection usually occurs when the cell concentration reaches 10^6-10^7 cfu/ml. For the Gram-positive strains the capacitance signal was monitored, while change in conductance was used for Gram-negative strains.
(§2) was measured in the Bactometer modules. The wells (containing 1 ml TSB and 0.1 ml protamine solution) were inoculated with 0.1 ml from a 10^-4 dilution of an inoculum culture, giving a final cell concentration in the well of approximately 10^3 cfu/ml. The concentration of protamine varied from 1 to 4000 µg/ml depending on the sensitivity of the strain investigated.
(§3) Minimum Inhibition Concentration (MIC) was determined as the lowest concentration of protamine resulting in absence of a DT.
(§4) When no DT was measured, the lethal/inhibitory effect on the cells were tested by plating the total well volume.
(§5) The minimum inhibition concentration (MIC) of various-substances was determined as described in Example 1. […]

Pseudomonas fluorescens [1] = assay: as above; design: key: n.e.: not effective; settings: Table 4, determined as in Example 1 (inhibition of at least 100 hours); n.e. = not effective
Protocol: as §1, §2, §3, §4, §5

Escherichia coli 0157:H7 = assay: as above; settings: Table 4, strain printed as Escherichia coli; determined as in Example 1 (inhibition of at least 100 hours); n.e. = not effective
Protocol: as §1, §2, §3, §4
(§6) The minimum inhibition concentration (MIC) of various-substances was determined as described in Example 1.
(§7) The following substances were tested: protamine (A), protamine sulphate (B), a peroxidase enzyme system (i.e. lactoperoxidase/glucoseoxidase (C)), subtilisin A (D), polyarginine (E) having an average molecular weight of about 6 kD and lysozyme (F) (150 000 units/mg; Johansen, C. et al., 1994).

Staphylococcus aureus = assay: as above; settings: Table 4, determined as in Example 1 (inhibition of at least 100 hours); n.e. = not effective
Protocol: as §1, §2, §3, §4, §6, §7

Vibrio paraheamolyticus = assay: as above; settings: Table 4, determined as in Example 1 (inhibition of at least 100 hours); n.e. = not effective
Protocol: as §1, §2, §3, §4, §6, §7

Listeria monocytogenes = assay: as above; settings: Table 4, determined as in Example 1 (inhibition of at least 100 hours); n.e. = not effective
Protocol: as §1
(§8) was measured in the Bactometer modules. […]
as §3, §4, §5
(§9) Further, the influence of cell concentration on the anti-bacterial effect of protamine was tested using the materials and methods described in Example 1, i.e.the correlation between cell concentration and protamine concentration has been measured by the impedimetric assay.

Shewanella putrefaciens = assay: as above; settings: Table 4, determined as in Example 1 (inhibition of at least 100 hours); n.e. = not effective
Protocol: as §1, §8, §3, §4, §5, §9

all the tested strains = assay: Comparative impedimetric MIC, all tested strains of Table 4; settings: summary of Table 4
Protocol: as §6, §7

Pseudomonas fluorescens [2] = assay: Synergy growth inhibition experiments, impedimetric, factorial design; settings: each alone: protamine 250 µg/ml, polylysine 500 µg/ml, lactoperoxidase 2 U/ml, glucose oxidase 2 U/ml
Protocol: Impedimetric measurements carried out as described in example 1 have shown an synergistic effect between basic peptides as protamine, polyarginine or polylysine and lysozyme and/or glucose oxidase and/or the lactoperoxidase enzyme system depending on pH and NaCl concentration.
Growth inhibition experiments were conducted, wherein synergistic and additional effects were determined by mixing compounds in low concentrations not having any activity on their own and using a factoral design. The effects were measured as growth inhibition or a 100% bacteriocidal effect with a total kill of the inoculum.

| Substance | Minimum Inhibitory Concentration (Pseudomonas aeruginosa) | Minimum Inhibitory Concentration (Pseudomonas fluorescens [1]) | Minimum Inhibitory Concentration (Escherichia coli 0157:H7) | Minimum Inhibitory Concentration (Staphylococcus aureus) | Minimum Inhibitory Concentration (Vibrio paraheamolyticus) | Minimum Inhibitory Concentration (Listeria monocytogenes) | Minimum Inhibitory Concentration (Shewanella putrefaciens) | effectiveness for inhibiting the tested strains (all the tested strains) | growth inhibition, compound alone (Pseudomonas fluorescens [2]) |
| --- | --- | --- | --- | --- | --- | --- | --- | --- | --- |
| polyarginine | n.e. | n.e. | 1500 µg/mL | 1500 µg/mL | 2000 µg/mL | 2000 µg/mL | 1500 µg/mL | effective for inhibiting all strains but Pseudomonas spp. | – |
| polylysine | – | – | – | – | – | – | – | – | not inhibited |
